From patent publication US20180099931A1 (AbbVie S.à.r.l., priority 2016, published 2018)
Where two headings read alike, the source gives them in different places.

Molecular target: T1, F508delCFTR (Homo sapiens, UniProt P13569, DEL508-508)
T1 construct: expressed in transfected cells; host or cells: CFBE41o- human lung-derived epithelial cells (CFBE4lo-F508delCFTR-HRP), doxycycline-inducible
Assay: Cell Surface Expression-Horse Radish Peroxidase (CSE-HRP) Assay;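 for Maximum % activity (with co-corrector): co-corrector and positive control are both the same reference corrector at 2 µM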;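 for Maximum % activity (without co-corrector): percent of the 2 µM on-plate positive control corrector response above DMSO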
Format: cell-based
Details: for Emax / Maximum % activity (with co-corrector): maximum at any tested concentration, normalized to on-plate positive control; for Emax: read-out: Maximum % activity (without co-corrector)

[1] = test compound without co-corrector
[2] = test compound without co-corrector, read-out: EC50 (without co-corrector)
[3] = with co-corrector (2 μM of 3-[(2R,4R)-4-({[1-(2,2-difluoro-1,3-benzodioxol-5-yl)cyclopropyl]carbonyl}amino)-7-methoxy-3,4-dihydro-2H-chromen-2-yl]benzoic acid)
[4] = with co-corrector (2 μM of 3-[(2R,4R)-4-({[1-(2,2-difluoro-1,3-benzodioxol-5-yl)cyclopropyl]carbonyl}amino)-7-methoxy-3,4-dihydro-2H-chromen-2-yl]benzoic acid), read-out: EC50 (with co-corrector)

T1 sequence (P13569 with tags, fused parts or gaps DEL508-508): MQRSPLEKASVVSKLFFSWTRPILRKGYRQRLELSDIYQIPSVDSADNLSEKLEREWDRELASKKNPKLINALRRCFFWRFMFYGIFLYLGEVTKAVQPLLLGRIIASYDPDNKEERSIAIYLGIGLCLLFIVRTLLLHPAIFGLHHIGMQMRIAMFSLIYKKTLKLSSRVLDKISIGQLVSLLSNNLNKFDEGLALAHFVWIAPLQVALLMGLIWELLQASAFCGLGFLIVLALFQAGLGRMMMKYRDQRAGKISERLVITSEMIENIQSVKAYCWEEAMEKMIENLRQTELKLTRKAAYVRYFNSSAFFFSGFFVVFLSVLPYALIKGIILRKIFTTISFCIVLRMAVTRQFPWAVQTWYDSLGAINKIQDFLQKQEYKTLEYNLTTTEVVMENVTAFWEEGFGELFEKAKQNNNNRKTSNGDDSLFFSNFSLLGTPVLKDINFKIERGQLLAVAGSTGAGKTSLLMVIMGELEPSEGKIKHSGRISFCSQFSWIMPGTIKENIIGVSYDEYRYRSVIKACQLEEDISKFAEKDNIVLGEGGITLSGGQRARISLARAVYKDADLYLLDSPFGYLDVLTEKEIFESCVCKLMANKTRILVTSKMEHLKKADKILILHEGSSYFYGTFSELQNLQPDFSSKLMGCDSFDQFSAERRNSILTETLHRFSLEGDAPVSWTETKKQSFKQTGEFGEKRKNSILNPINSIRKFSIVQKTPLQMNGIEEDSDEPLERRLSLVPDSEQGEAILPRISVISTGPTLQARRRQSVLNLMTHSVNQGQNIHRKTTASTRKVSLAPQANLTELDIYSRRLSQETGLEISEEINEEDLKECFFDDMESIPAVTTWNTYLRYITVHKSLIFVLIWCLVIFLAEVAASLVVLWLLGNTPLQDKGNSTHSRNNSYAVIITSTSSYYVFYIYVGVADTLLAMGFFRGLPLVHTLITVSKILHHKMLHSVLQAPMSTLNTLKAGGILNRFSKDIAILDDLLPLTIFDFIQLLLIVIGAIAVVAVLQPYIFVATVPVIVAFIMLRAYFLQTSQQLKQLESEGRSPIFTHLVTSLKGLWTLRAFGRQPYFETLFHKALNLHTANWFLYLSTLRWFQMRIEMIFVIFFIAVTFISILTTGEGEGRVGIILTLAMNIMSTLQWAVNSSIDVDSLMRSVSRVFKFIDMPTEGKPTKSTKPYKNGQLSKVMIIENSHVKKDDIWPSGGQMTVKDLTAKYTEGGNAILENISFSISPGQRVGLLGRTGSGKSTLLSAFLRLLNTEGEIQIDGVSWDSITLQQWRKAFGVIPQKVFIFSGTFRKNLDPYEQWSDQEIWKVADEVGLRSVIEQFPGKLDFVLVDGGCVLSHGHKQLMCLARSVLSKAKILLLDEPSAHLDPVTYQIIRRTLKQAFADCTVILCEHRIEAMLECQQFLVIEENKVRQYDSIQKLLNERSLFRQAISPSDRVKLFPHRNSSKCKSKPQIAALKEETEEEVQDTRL

Compound	Emax [1]	EC50 [2]	Maximum % activity (with co-corrector) [3]	EC50 [4]
COc1nc(C(C)(C)C)ccc1CN[C@H]1[C@H](C(C)(C)C)[C@@H](C(=O)O)N(C(=O)OC(C)C)[C@H]1c1cccnc1OC(C)C [II-557]	100 to 200%	1 to 10 µM	+++ (≥350)	< 1 µM
COc1cc(C(F)(F)F)ccc1CN[C@H]1[C@H](C(C)(C)C)[C@@H](C(=O)O)N(C(=O)CC(C)C)[C@H]1c1ccccc1 [II-558]	100 to 200%	1 to 10 µM	+++ (≥350)	1 to 10 µM
COc1ccc(C2(C(F)(F)F)CC2)cc1CN[C@H]1[C@H](C(C)(C)C)[C@@H](C(=O)O)N(C(=O)OC(C)C)[C@H]1c1cccnc1N(C)C [II-559]	> 200%	1 to 10 µM	+++ (≥350)	1 to 10 µM
COc1ccc(OC(F)(F)F)cc1CN[C@H]1[C@H](C(C)(C)C)[C@@H](C(=O)O)N(C(=O)OC(C)C)[C@H]1c1ccccc1C(C)C [II-560]	> 200%	1 to 10 µM	+++ (≥350)	< 1 µM
COc1cc(C(F)(F)F)ccc1CN[C@H]1[C@H](C(C)(C)C)[C@@H](C(=O)O)N(C(=O)OC(C)C)[C@H]1c1ccccc1C(C)C [II-561]	> 200%	1 to 10 µM	+++ (≥350)	< 1 µM
COc1cc2ccccc2cc1CN[C@H]1[C@H](C(C)(C)C)[C@@H](C(=O)O)N(C(=O)OC(C)C)[C@H]1c1cccnc1N(C)C [II-562]	100 to 200%	1 to 10 µM	+++ (≥350)	1 to 10 µM
COc1cc2c(cc1CN[C@H]1[C@H](C(C)(C)C)[C@@H](C(=O)O)N(C(=O)OC(C)C)[C@H]1c1cccnc1N(C)C)CCC2 [II-563]	100 to 200%	1 to 10 µM	+++ (≥350)	1 to 10 µM
COc1ccc(C(C)(C)C)cc1CN[C@H]1[C@H](C(C)(C)C)[C@@H](C(=O)O)N(C(=O)CC(C)C)[C@H]1c1ccccc1 [II-564]	> 200%	1 to 10 µM	+++ (≥350)	1 to 10 µM
COc1cc2c(cc1CN[C@H]1[C@H](C(C)(C)C)[C@@H](C(=O)O)N(C(=O)OC(C)C)[C@H]1c1cccnc1N(C)C)CCCC2 [II-565]	100 to 200%	1 to 10 µM	+++ (≥350)	1 to 10 µM
COc1ncc(C2CCC2)cc1CN[C@H]1[C@H](C(C)(C)C)[C@@H](C(=O)O)N(C(=O)[C@H]2CCCCO2)[C@H]1c1ccccc1F [II-566]	100 to 200%	1 to 10 µM	+++ (≥350)	1 to 10 µM
COc1ccc(Cl)cc1CN[C@H]1[C@H](C(C)(C)C)[C@@H](C(=O)O)N(C(=O)OC(C)C)[C@H]1c1ccccc1C(C)C [II-567]	> 200%	1 to 10 µM	+++ (≥350)	1 to 10 µM
COc1ccc(Cl)cc1CN[C@H]1[C@H](C(C)(C)C)[C@@H](C(=O)O)N(C(=O)OC(C)C)[C@H]1c1cccnc1N(C)C [II-568]	100 to 200%	1 to 10 µM	++ (≥150 and <350)	1 to 10 µM
COc1ccc2c(c1)[C@@](C)(C(=O)N1[C@H](C(=O)O)[C@@H](C(C)(C)C)[C@H](NCc3cc(C(C)(C)C)ccc3OC)[C@@H]1c1cccnc1OC)CC2 [II-569]	< 100%	1 to 10 µM	+++ (≥350)	1 to 10 µM
COc1ccc2c(c1)[C@](C)(C(=O)N1[C@H](C(=O)O)[C@@H](C(C)(C)C)[C@H](NCc3cc(C(C)(C)C)ccc3OC)[C@@H]1c1cccnc1OC)CC2 [II-570]	< 100%	1 to 10 µM	++ (≥150 and <350)	1 to 10 µM
COc1cc(C(F)(F)F)ccc1CN[C@H]1[C@H](C(C)(C)C)[C@@H](C(=O)O)N(C(=O)[C@H]2CCC[C@H](OC)C2)[C@H]1c1ccccc1 [II-571]	> 200%	1 to 10 µM	+++ (≥350)	1 to 10 µM
COc1ncc(C(F)(F)F)cc1CN[C@H]1[C@H](C(C)(C)C)[C@@H](C(=O)O)N(C(=O)[C@@H]2CCCC(F)(F)C2)[C@H]1c1cccnc1OC [II-572]	100 to 200%	1 to 10 µM	+++ (≥350)	< 1 µM
COc1ccc(C(F)(F)F)cc1CN[C@H]1[C@H](C(C)(C)C)[C@@H](C(=O)O)N(C(=O)C2CCCCC2)[C@H]1c1cccnc1OC [II-573]	100 to 200%	1 to 10 µM	+++ (≥350)	1 to 10 µM
